Values joined by “and” are separate entries in the source; they are usually repeats but may differ in a detail not shown here. Equal entries are not always repeated. “Also recorded” adds a separate entry of the source. d = 2'-deoxy (DNA); m = 2'-O-methyl
Legend:
MCF-7 cell line = assay: Cell cycle assay (propidium iodide, flow cytometry); type: cell-based, Human; settings: 0.25 and 0.5 μM; 48 hours; only statistically significant alteration
Protocol: Cell cycle assays were performed to understand how the ASMO APT20TTMG affects the cell cycle of MCF-7 cell line and its potential mechanisms of action. Initially, cells were plated in 12-well plates at a density of 5×10^4 cells/well and cultured for 24 hours for adhesion and then treated with three different concentrations of APT20TTMG (0.25, 0.5 and 1.0 μM) for 48 hours. After, cells were collected using a solution of trypsin/EDTA and washed with 2.0 mL of PBS buffer followed by centrifugation at 1500 rpm for 5 minutes. Then, the cells were fixed with ice-cold 70% ethanol and incubated overnight at 4° C. After that, cells were washed again with 2.0 mL of PBS and incubated with Propidium Iodide solution (50 μg/mL) and RNAse (200 μg/mL) for 1 hour at room temperature and protected from light. Finally, the cells were analyzed in a flow cytometer (BD FACSCanto II, BD Biosciences), through the acquisition of 10.000 gated events considering each sample.

[1] = system: neuroblastoma cell line SH-SY5Y; assay: Kinetics of internalization; type: cell-based, Human; settings: all evaluated times
SH-SY5Y cell line = assay: Distribution of cell cycle phases; type: cell-based, Human; settings: any concentration evaluated
[2] = system: glioblastoma cell line U87-MG; assay: Internalization of FAM-conjugated compound by flow cytometry; type: cell-based, Human; settings: 1 μM FAM conjugate
Protocol: The values obtained were: 1 hour (47.45±4.7%), 2 hours (45.45±3.9%), 4 hours (58±4.8%) and 6 hours (63.65±3.2%). Cells were exposed to the fluorochrome-conjugated compound FAM at a concentration of 1 μM, so that the quantification of intracellular fluorescence was performed at 1, 2, 4 and 6 hours using of the flow cytometry technique, through the acquisition of 10,000 gated events. Data of 2 independent experiments performed in two technical replicates.

U87-MG cell line [3] = assay: Distribution of cell cycle phases; type: cell-based, Human; settings: 0.25 μM, 48 hours
Protocol: The methodologies for this Example are the same as shown in Example 4.
Cells were plated and treated with 3 different concentrations (0.25, 0.5, and 1 μM) of APT20TTMG and cell cycle phases were evaluated after 48 hours of incubation. Cell proliferation is regulated by cell cycle progression. Phases: Sub/G1: non-proliferative state (quiescence); G1/G0: cell growth; S: DNA replication; G2/M: DNA segregation and mitosis. Results were expressed as Mean Standard Error of three independent experiments.

U87-MG cell line [4] = assay: Apoptosis assay; type: cell-based, Human
[5] = system: Human Glioblastoma Cancer (U-87MG) xenograft; assay: Histopathology of tumor samples with scoring; type: in vivo, athymic nude mice; set-up: key to Score: Grade: 1: I; 2: II; 3: III; 4: IV; key to Score: Connective tissue stroma: 1: Minimal Fibrosis; 2: Mild Fibrosis; 3: Moderate Fibrosis; 4: Prominent; key to Score: N:C ratio: 3: High; 2: Low to High; 1: Low; key to Score: Apoptosis / Score: Lipid content: 4: Minimal; 3: Mild; 2: Moderate; 1: Prominent
Description: The fixed tissues were processed for routine paraffin embedding followed by sectioning (3-6 micron). The sections were stained with hematoxylin and eosin. The prepared slides were examined under microscope by the study pathologist to record histopathological findings in tumor samples, related to capsule formation, cell type, connective tissue stroma, apoptosis, necrosis, lipid content, nucleus-to-cytoplasmic (N:C) ratio, nuclei mitotic figures, tumor grade, and level of differentiation. Each histopathological finding and tumor volume were assigned a score ranging from 1 to 4 (Table 7). The sum of these scores for each sample was used to infer the tumor aggressiveness.

cAMP = assay: ELISA of tumor tissue homogenate; type: in vivo, U-87MG xenograft in animals; settings: vs negative control; lower total expression
Protocol: (§1) For the assessment of biomarkers such as cAMP, AKT, GFAP, and TAU by ELISA, the U-87MG tumor tissues dissected out from the animals were homogenized according to kit instructions. The homogenates were centrifugated, and the supernatant was collected and immunoassayed with the Human AKT Protein ELISA Kit (MyByoSouce), cyclic AMP Complete Enzyme-linked Immunosorbent Assay (ELISA) kit (MyByoSouce), Human Glial Fibrillary Acidic Protein (GFAP) ELISA Kit (Cusabio), and Human TAU Protein (TAU) ELISA Kit (MyByoSouce) for the quantitative determination of cAMP, AKT, GFAP, and TAU proteins, respectively.
(§2) As shown in FIG. 37A-D, the graphs present the individual values of protein quantification of tumors from 6 animals. (A) cAMP, (B) […], (C) GFAP, and (D) TAU.

AKT = assay: ELISA of tumor tissue homogenate; type: in vivo, Human; settings: in relation to the negative control
Protocol: as §1, §2

GFAP = assay: ELISA of tumor tissue homogenate; type: in vivo, Human; settings: in relation to the non-treated control
Protocol: as §1, §2

TAU = assay: ELISA of tumor tissue homogenate; type: in vivo, Human; settings: after treatment
Protocol: as §1, §2

[6] = two highest concentrations (0.5 and 1 μM)
[7] = individual animals, G3 APT20TTMG, G2 TMZ

Which results are given for “APT20TTMG: engineered polynucleotide ASMO1, 24 nt, SEQ ID NO: 3 gtccactaacctttcaggccagcg; targeting moieties 5′-GTCCA-3′ and 5′-CG-3′, U1 snRNP recruiting moiety (GTCCACTAACCTTTCAGGCCAGCG; sugars from the 5' end m5 d14 m5, all phosphorothioate, methylation of C and T or U not given here)”?
cells in S phase of cell cycle (MCF-7 cell line): lower concentration of cells; internalization [1]: around 50%; cell cycle phases (SH-SY5Y cell line): no change in cell cycle phases; internalization ([2]; 1 hour): 47.45±4.7%; internalization ([2]; 2 hours): 45.45±3.9%; internalization ([2]; 4 hours): 58±4.8%; internalization ([2]; 6 hours): 63.65±3.2%; cells in G1/G0 phase (U87-MG cell line [3]; p=0.0036): reduction in retention; cells in G2/M phase (U87-MG cell line [3]; p=0.0425): increase in retention; late apoptosis (U87-MG cell line [4]; 0.25 μM): trend toward this state; late apoptosis (U87-MG cell line [4]; [6]): significantly marked for late apoptosis; viable cells (apoptosis assay) (U87-MG cell line [4]; [6]): reduce cell viability; total score of histopathological findings and tumor volume ([5]; G3 20 mg/kg i.v. vs G1 vehicle): statistically lower scores than G1 group; histopathological findings compared to G1 (vehicle control) ([5]; G3 APT20TTMG 20 mg/kg i.v., G2 TMZ 5 mg/kg p.o.): less anaplastic features (lower grade) and cellular atypia, with fewer mitotic figures; Histopathological findings: Cell Type ([5]; individual animals): Cell Type - Irregular/spindle type cells; also recorded: Cell Type - Polymorphic (i.e., Moderately differentiated; Histopathological findings (whole sample) ([5]; individual animals, G3): Only diffused necrotic area was observed.; Score: Capsule ([5]; individual animals, G3): 1; Histopathological findings: Capsule ([5]; individual animals, G3 APT20TTMG 20 mg/kg i.v. q3dx7, G2 TMZ 5 mg/kg p.o. qdx21): Capsule - Present; also recorded: Capsule - Absent; Histopathological findings: Apoptosis [5, 7]: Apoptosis - Mild; also recorded: Apoptosis - Moderate; Histopathological findings: Connective tissue stroma [5, 7]: Connective tissue stroma - Moderate Fibrosis; also recorded: Connective tissue stroma - Mild Fibrosis; Histopathological findings: Grade [5, 7]: Grade- 2; also recorded: Grade- 1; also recorded: Grade- 3; Histopathological findings: Lipid content [5, 7]: Lipid content - Moderate; also recorded: Lipid content - Minimal; also recorded: Lipid content - Mild; Histopathological findings: Mitotic figures [5, 7]: Mitotic figures - Active (Few in number); also recorded: Mitotic figures - Active (Moderate in number); also recorded: Mitotic figures - Active (Large in number); Histopathological findings: N:C ratio [5, 7]: N:C ratio - Low to High (Intermediate); Histopathological findings: Necrosis [5, 7]: Necrosis - Prominent; also recorded: Necrosis - Moderate; also recorded: Necrosis - Mild; Histopathological findings: Nuclei [5, 7]: Nuclei - Hyperchromatic; Histopathological findings: level of differentiation [5, 7]: Moderately differentiated; also recorded: Well differentiated; Score: Apoptosis [5, 7]: 3 (4×) and 2 (2×); Score: Connective tissue stroma [5, 7]: 3 (4×) and 2 (2×); Score: Grade [5, 7]: 2 (4×) and 1 and 3; Score: Lipid content [5, 7]: 3 (3×) and 1 and 2 (2×); Score: N:C ratio [5, 7]: 1 (3×) and 2 (2×) and 3; Score: Volume Tumor [5, 7]: 1 (<500) (2×) and 2 (500-1000) (3×) and 3 (1000-1500); cAMP in tumor tissue (ELISA) (cAMP): no statistical difference was observed; AKT expression in tumor tissue (ELISA) (AKT): reduces the expression of ART protein; GFAP in tumor tissue (ELISA) (GFAP): reduction of this biomarker; TAU expression in tumor tissue (ELISA) (TAU): significant reduction in TAU expression

Reference: patent publication US20260085315A1, “POLYNUCLEOTIDE COMPOSITIONS AND METHODS FOR TREATMENT OF CANCER” (APTAH BIO, INC., priority 2023, published 2026)
